We go through 23 molecules from US4470980A, “Method of increasing oral absorption of β-lactam antibiotics” (priority 1981, dated 1984).

Read-outs that look alike come from different tables or passages of the source.

For data set [1] the following is noted: cited from earlier work.
Data set [2] is described as follows: Blood level AUC after oral capsule of β-lactam antibiotic with adjuvant in dogs. The following applies: 300 mg/kg, dog, per os capsule, control, no absorption promotor, carbenicillin by bioassay, read-out: (AUC)° area below the blood level curve. Format: in vivo, dog (Beagles).
Protocol: Animal: Beagles (body weight 9.9-12.0 kg), 2 animals per test
Drug: β-Lactam antibiotics
Adjuvant: Hydroxylated aromatic carboxylic acids
Dose: β-Lactam antibiotic/adjuvant=300 mg/300 mg/kg
Form of inoculum: Capsule
Route of administration: Per os
Blood sampling: Vein (upper arm)
Object of assay: Blood level
Quantitation: Carbenicillin was determined by bioassay.
Another data set in a line: in vivo. The following applies: mouse, urine, po, control without sodium salicylate, cefmetazole 50 mg/kg, gavage, mice, ± standard deviation, 8 mice, read-out: Percent of Dose In Urine.
The conditions of data set [3]: gastric acid; prior art; cited from earlier work.

Protocol for in vivo: The sodium salt of cefmetazole (50 mg/kg) and sodium salicylate (200 mg/kg) dissolved in water were given to mice by gavage. As a control, mice were given an equal dose of the sodium salt of cefmetazole in water without the added sodium salicylate. The mice were place in individual metabolism cages and their urines collected after 24 hours.
The urine samples were acidified to pH 2.0 with 1N phosphoric acid. Acidified samples were applied to 100-200 mesh XAD.2 columns (1.5 ml), and the column washed with H2 O. Cefmetazole was eluted with 2 ml methanol and measured by high pressure liquid chromatography which was carried out using an Altex liquid chromatograph equipped with a dual wavelength recorder (254 nm and 280 nm). The column was a LiChrosorb 10 RP-18 (length=25 cm., internal diameter--4.6 mm) obtained from Chrompack, Whittier, CA. All assays were done at ambient temperatures. A 3 cm guard column of RP-18 column material (Rheodyne, Inc., Berkeley, CA) was also used. […] Concentrations of cefmetazole were determined by measuring peak height at 254 nm and evaluating on the basis of standard curves run under identical conditions.

On to `CC(=O)OCC1=C(C(=O)O)N2C(=O)[C@@H](NC(=O)CC#N)[C@H]2SC1` [cephacetrile], for which, in data set [1] (oral, prior art), the oral activity entry is “poor oral activity”.
Broadly, the AUC is the area under the concentration-time curve, a measure of exposure. As for `CC1(C)S[C@@H]2[C@H](NC(=O)C(C(=O)O)c3ccccc3)C(=O)N2[C@H]1C(=O)O` (stereo partly drawn) [Carbenicillin], the AUC in data set [2] was 5200 ng·h/mL.
Turning to `CC1(C)S[C@@H]2[C@H](NC(=O)C(C(=O)Oc3ccc4c(c3)CCC4)c3ccccc3)C(=O)N2[C@H]1C(=O)O` (stereo partly drawn) [carindacillin], in data set [1] (in vivo, po), the absorbed is 40% and the blood levels entry was “low blood levels of carbenicillin”.
As for `CO/N=C(\C(=O)N[C@@H]1C(=O)N2C(C(=O)O)=C(COC(N)=O)CS[C@H]12)c1ccco1` [cefuroxime], in data set [1] (in vivo, po), the oral activity entry is “poor oral activity”.
In the case of `CC1(C)S[C@@H]2[C@H](NC(=O)[C@H](N)c3ccc(O)cc3)C(=O)N2[C@H]1C(=O)O` [amoxicillin, 6-[[amino(4-hydroxyphenyl)-acetyl]amino]-3,3-dimethyl-7-oxo-4-thia-1-azabicyclo-[3.2.0]heptane-2-carboxylic acid], the oral activity entry in data set [1] (oral, prior art) is on record as “poor oral activity”.
`CC(=O)OCC1=C(C(=O)O)N2C(=O)[C@@H](NC(=O)Cc3cccs3)[C@H]2SC1` [cephalothin]: the oral activity entry in data set [1] (in vivo, po) is listed as “poor oral activity”.
For the molecule `CC(=O)OCC1=C(C(=O)O)N2C(=O)[C@@H](NC(=O)CCC[C@@H](N)C(=O)O)[C@H]2SC1` [cephalosporin C], the oral activity result in data set [1] (oral, prior art) is listed as “lack of oral activity”.
For `CC1=C(C(=O)O)N2C(=O)[C@@H](NC(=O)[C@H](N)C3=CCC=CC3)[C@H]2SC1` [cephradine], the absorbed result in data set [1] (in vivo, po) was “greater than 80%”.
As for `CO[C@@]1(NC(=O)CSCC#N)C(=O)N2C(C(=O)O)=C(CSc3nnnn3C)CS[C@@H]21` [Cefmetazole], the dose excreted at 24 h in the data set “in vivo” is 9.1 ± 7.5%. The oral activity result in data set [1] (oral, prior art) was “poor oral activity”.
Turning to `CO[C@@]1(NC(=O)Cc2cccs2)C(=O)N2C(C(=O)O)=C(COC(N)=O)CS[C@@H]21` [cefoxitin, (6R-cis)-3-[[(amino-carbonyl)oxy]methyl]-7-methoxy-8-oxo7[(2-thienylacetyl)-amino]-5-thia-1-azabicyclo [4.2.0]oct-2-ene-2-carboxylic acid], the oral activity entry in data set [1] (in vivo, po) was “poor oral activity”.
As for `CC1=C(C(=O)O)N2C(=O)[C@@H](NC(=O)[C@H](N)c3ccc(O)cc3)[C@H]2SC1` [cefdioxil], the absorbed result in data set [1] (in vivo, po) is recorded as “greater than 80%”.
Take `CC(=O)OCC1=C(C(=O)O)N2C(=O)[C@@H](NC(=O)[C@H](N)c3ccccc3)[C@H]2SC1` [cephaloglycin]: the absorbed result in data set [1] (oral, prior art) was “greater than 80%”.
`CCN1CCN(C(=O)N[C@@H](C(=O)N[C@@H]2C(=O)N3C(C(=O)O)=C(CSc4nnnn4C)CS[C@H]23)c2ccc(O)cc2)C(=O)C1=O` [Example T-1551]: in data set [1] (oral, prior art), the oral activity result was “poor oral activity”.
Regarding `CO[C@@]1(NC(=O)C(C(=O)O)c2ccc(O)cc2)C(=O)N2C(C(=O)O)=C(CSc3nnnn3C)CO[C@@H]21` (stereo partly drawn) [Example S-6059], the oral activity result in data set [1] (in vivo, po) was “poor oral activity”.
Take `CC1(C)S[C@@H]2[C@H](NC(=O)[C@H](C(=O)O)c3ccsc3)C(=O)N2[C@H]1C(=O)O` [ticarcillin]: in data set [1] (oral, prior art), the oral activity entry is “cannot be administered by the oral route”.
In the case of `CC1(C)S[C@@H]2[C@H](NC(=O)C(C(=O)Oc3ccccc3)c3ccccc3)C(=O)N2[C@H]1C(=O)O` (stereo partly drawn) [carfecillin], in data set [1] (in vivo, po), the absorbed was 40% and the blood levels entry is recorded as “low blood levels of carbenicillin”.
Take `CC(=O)OCC1=C(C(=O)O)N2C(=O)[C@@H](NC(=O)CSc3ccncc3)[C@H]2SC1` [cephapirin]: in data set [1] (oral, prior art), the oral activity entry is “poor oral activity”.
For `CC1(C)S[C@@H]2[C@H](NC(=O)[C@H](N)c3ccccc3)C(=O)N2[C@H]1C(=O)O` [ampicillin], the oral activity entry in data set [1] (oral, prior art) was “poor oral activity”.
As to `CC1(C)S[C@@H]2[C@H](NC(=O)COc3ccccc3)C(=O)N2[C@H]1C(=O)O` [penicillin V], the acid stability result in data set [3] is “more acid stable”. In addition, the blood levels result in data set [1] (oral, prior art) is “higher blood levels of the active therapeutic agent”.
Regarding `N[C@@H](C(=O)N[C@@H]1C(=O)N2C(C(=O)O)=C(Cl)CS[C@H]12)c1ccccc1` [cefaclor], the absorbed entry in data set [1] (oral, prior art) was “greater than 80%”.
Consider `Cc1nnc(SCC2=C(C(=O)O)N3C(=O)[C@@H](NC(=O)[C@H](N)c4ccc(O)cc4)[C@H]3SC2)s1` [cefaporole], for which the oral activity entry in data set [1] (oral, prior art) is listed as “poor oral activity”.
As to `O=C(Cc1cccs1)N[C@@H]1C(=O)N2C(C(=O)[O-])=C(C[n+]3ccccc3)CS[C@H]12` [cephaloridine], in data set [1] (oral, prior art), the oral activity result is reported as “poor oral activity”.
In the case of `Cc1nnc(SCC2=C(C(=O)O)N3C(=O)[C@@H](NC(=O)Cn4cnnn4)[C@H]3SC2)s1` [cefaxolin], the oral activity result in data set [1] (oral, prior art) is reported as “poor oral activity”.
